Test system: 874868-142-R-J2-PDC complex spheroids, growth % test/control
Assay: Anticancer human tumor 874868-142-R-J2-PDC patient-derived head and neck squamous carcinoma cell line growth inhibition [CLK]
Settings: for IC50: curve of first compound; for viability, T/C: stronger effect = lower value
Method in brief: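 Multi-cell-type spheroids combined patient-derived tumor cells with HUVEC endothelial cells and human mesenchymal stem cells. Paired agents were dosed in half-log steps down from about clinical Cmax, or from 10 microM where Cmax was unknown.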

[1] = second compound 0.0316 µM, first compound 0.0316 µM
[2] = second compound 0.0316 µM, first compound 0.1 µM
[3] = second compound 0.0316 µM, first compound 0.316 µM
[4] = second compound 0.0316 µM, first compound 1 µM
[5] = second compound 0.0316 µM, first compound 3.16 µM
[6] = second compound 0.0316 µM, first compound 10 µM
[7] = second compound 0.1 µM, first compound 0.0316 µM
[8] = second compound 0.1 µM, first compound 0.1 µM
[9] = second compound 0.1 µM, first compound 0.316 µM
[10] = second compound 0.1 µM, first compound 1 µM
[11] = second compound 0.1 µM, first compound 3.16 µM
[12] = second compound 0.1 µM, first compound 10 µM
[13] = second compound 0.316 µM, first compound 0.0316 µM
[14] = second compound 0.316 µM, first compound 0.1 µM
[15] = second compound 0.316 µM, first compound 0.316 µM
[16] = second compound 0.316 µM, first compound 1 µM
[17] = second compound 0.316 µM, first compound 3.16 µM
[18] = second compound 0.316 µM, first compound 10 µM
[19] = second compound 1 µM, first compound 0.0316 µM
[20] = second compound 1 µM, first compound 0.1 µM
[21] = second compound 1 µM, first compound 0.316 µM
[22] = second compound 1 µM, first compound 1 µM
[23] = second compound 1 µM, first compound 3.16 µM
[24] = second compound 1 µM, first compound 10 µM
[25] = second compound 3.16 µM, first compound 0.0316 µM
[26] = second compound 3.16 µM, first compound 0.1 µM
[27] = second compound 3.16 µM, first compound 0.316 µM
[28] = second compound 3.16 µM, first compound 1 µM
[29] = second compound 3.16 µM, first compound 3.16 µM
[30] = second compound 3.16 µM, first compound 10 µM
[31] = second compound 10 µM, first compound 0.0316 µM
[32] = second compound 10 µM, first compound 0.1 µM
[33] = second compound 10 µM, first compound 0.316 µM
[34] = second compound 10 µM, first compound 1 µM
[35] = second compound 10 µM, first compound 3.16 µM
[36] = second compound 10 µM, first compound 10 µM
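Further: spheroids exposed to the compounds for 7 days.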
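Wherever viability, T/C is given: 100% = DMSO vehicle control viability.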

`CC1(C)CCC(CN2CCN(c3ccc(C(=O)NS(=O)(=O)c4ccc(NCC5CCOCC5)c([N+](=O)[O-])c4)c(Oc4cnc5[nH]ccc5c4)c3)CC2)=C(c2ccc(Cl)cc2)C1` + CNC(=O)c1ccc(Nc2nc(OC3CCCC3)c3c(-c4ccc5nc(C)oc5c4)c[nH]c3n2)c(OC)c1 gave an IC50 (second compound 0.0316 µM) of 7610 nM, an IC50 (second compound 0.1 µM) of 8100 nM and an IC50 (second compound 0.316 µM) of 5320 nM. For the same compound, the IC50 (second compound 1 µM) was 3200 nM, the IC50 (second compound 3.16 µM) was under 31.6 nM and the IC50 (second compound 10 µM) was under 31.6 nM. For the same compound, the viability, T/C [1] was 104%, the viability, T/C [2] was 103% and the viability, T/C [3] was 105%. It also gave a viability, T/C [4] of 92.7%, a viability, T/C [5] of 117% and a viability, T/C [6] of 33%. It also gave a viability, T/C [7] of 95.8%, a viability, T/C [8] of 89.4% and a viability, T/C [9] of 86.7%. It also gave a viability, T/C [10] of 84.2%, a viability, T/C [11] of 94.6% and a viability, T/C [12] of 41.1%. For the same compound, the viability, T/C [13] was 56.3%, the viability, T/C [14] was 67.9% and the viability, T/C [15] was 72.4%. For the same compound, the viability, T/C [16] was 62.5%, the viability, T/C [17] was 51% and the viability, T/C [18] was 44.2%. The viability, T/C [19] was 51.8%, the viability, T/C [20] was 51.5% and the viability, T/C [21] was 50.6%. The viability, T/C [22] was 46.1%, the viability, T/C [23] was 51.1% and the viability, T/C [24] was 34.1%. It also gave a viability, T/C [25] of 46.2%, a viability, T/C [26] of 48.4% and a viability, T/C [27] of 39.1%. For the same compound, the viability, T/C [28] was 41.6%, the viability, T/C [29] was 43.8% and the viability, T/C [30] was 39.8%. It also gave a viability, T/C [31] of 40.5%, a viability, T/C [32] of 51% and a viability, T/C [33] of 45.6%. For the same compound, the viability, T/C [34] was 47.7%, the viability, T/C [35] was 57.2% and the viability, T/C [36] was 31.8%.

`CC1COCCN1c1cc(C2(S(C)(=N)=O)CC2)nc(-c2ccnc3[nH]ccc23)n1` (stereo unspecified) + CNC(=O)c1ccc(Nc2nc(OC3CCCC3)c3c(-c4ccc5nc(C)oc5c4)c[nH]c3n2)c(OC)c1 was tested, and the IC50 (second compound 0.0316 µM) was 5960 nM, the IC50 (second compound 0.1 µM) was 2860 nM and the IC50 (second compound 0.316 µM) was 404 nM. For the same compound, the IC50 (second compound 1 µM) was under 31.6 nM, the IC50 (second compound 3.16 µM) was under 31.6 nM and the IC50 (second compound 10 µM) was under 31.6 nM. For the same compound, the viability, T/C [1] was 125%, the viability, T/C [2] was 96.2% and the viability, T/C [3] was 91.9%. For the same compound, the viability, T/C [4] was 69.8%, the viability, T/C [5] was 53.9% and the viability, T/C [6] was 45.9%. The viability, T/C [7] was 101%, the viability, T/C [8] was 79.1% and the viability, T/C [9] was 73.1%. It also gave a viability, T/C [10] of 55%, a viability, T/C [11] of 54.8% and a viability, T/C [12] of 39%. The viability, T/C [13] was 51.2%, the viability, T/C [14] was 53.8% and the viability, T/C [15] was 53%. For the same compound, the viability, T/C [16] was 40.2%, the viability, T/C [17] was 37.7% and the viability, T/C [18] was 35.6%. For the same compound, the viability, T/C [19] was 44.7%, the viability, T/C [20] was 47.6% and the viability, T/C [21] was 50.8%. For the same compound, the viability, T/C [22] was 35%, the viability, T/C [23] was 21.8% and the viability, T/C [24] was 23.1%. It also gave a viability, T/C [25] of 42.5%, a viability, T/C [26] of 46.5% and a viability, T/C [27] of 44.4%. It also gave a viability, T/C [28] of 34.9%, a viability, T/C [29] of 34.6% and a viability, T/C [30] of 27.8%. The viability, T/C [31] was 44.1%, the viability, T/C [32] was 37.9% and the viability, T/C [33] was 41.7%. For the same compound, the viability, T/C [34] was 29.6%, the viability, T/C [35] was 26.6% and the viability, T/C [36] was 17.2%.

`NC(=O)C(=Cn1cnc(-c2cc(C(F)(F)F)cc(C(F)(F)F)c2)n1)c1cncnc1` + CNC(=O)c1ccc(Nc2nc(OC3CCCC3)c3c(-c4ccc5nc(C)oc5c4)c[nH]c3n2)c(OC)c1 showed an IC50 (second compound 0.0316 µM) of 31.3 nM, an IC50 (second compound 0.1 µM) of 21.3 nM and an IC50 (second compound 0.316 µM) of under 9.49 nM. It also gave an IC50 (second compound 1 µM) of under 9.49 nM, an IC50 (second compound 3.16 µM) of under 9.49 nM and an IC50 (second compound 10 µM) of under 9.49 nM. The viability, T/C (second compound 0.0316 µM, first compound 0.00949 µM) was 70.8%, the viability, T/C (second compound 0.0316 µM, first compound 0.03 µM) was 49.3% and the viability, T/C (second compound 0.0316 µM, first compound 0.0949 µM) was 28.2%. The viability, T/C (second compound 0.0316 µM, first compound 0.3 µM) was 6.41%, the viability, T/C (second compound 0.0316 µM, first compound 0.949 µM) was 4.32% and the viability, T/C (second compound 0.0316 µM, first compound 3 µM) was 4.58%. For the same compound, the viability, T/C (second compound 0.1 µM, first compound 0.00949 µM) was 66.4%, the viability, T/C (second compound 0.1 µM, first compound 0.03 µM) was 40.8% and the viability, T/C (second compound 0.1 µM, first compound 0.0949 µM) was 27.1%. It also gave a viability, T/C (second compound 0.1 µM, first compound 0.3 µM) of 4.57%, a viability, T/C (second compound 0.1 µM, first compound 0.949 µM) of 3.53% and a viability, T/C (second compound 0.1 µM, first compound 3 µM) of 3.49%. For the same compound, the viability, T/C (second compound 0.316 µM, first compound 0.00949 µM) was 45.8%, the viability, T/C (second compound 0.316 µM, first compound 0.03 µM) was 33.4% and the viability, T/C (second compound 0.316 µM, first compound 0.0949 µM) was 17.1%. It also gave a viability, T/C (second compound 0.316 µM, first compound 0.3 µM) of 2.51%, a viability, T/C (second compound 0.316 µM, first compound 0.949 µM) of 4.77% and a viability, T/C (second compound 0.316 µM, first compound 3 µM) of 2.89%. For the same compound, the viability, T/C (second compound 1 µM, first compound 0.00949 µM) was 34%, the viability, T/C (second compound 1 µM, first compound 0.03 µM) was 19.8% and the viability, T/C (second compound 1 µM, first compound 0.0949 µM) was 14.9%. The viability, T/C (second compound 1 µM, first compound 0.3 µM) was 2.12%, the viability, T/C (second compound 1 µM, first compound 0.949 µM) was 1% and the viability, T/C (second compound 1 µM, first compound 3 µM) was 4.53%. The viability, T/C (second compound 3.16 µM, first compound 0.00949 µM) was 35.6%, the viability, T/C (second compound 3.16 µM, first compound 0.03 µM) was 19.2% and the viability, T/C (second compound 3.16 µM, first compound 0.0949 µM) was 12.4%. The viability, T/C (second compound 3.16 µM, first compound 0.3 µM) was 1.32%, the viability, T/C (second compound 3.16 µM, first compound 0.949 µM) was 6.47% and the viability, T/C (second compound 3.16 µM, first compound 3 µM) was 0.18%. The viability, T/C (second compound 10 µM, first compound 0.00949 µM) was 36%, the viability, T/C (second compound 10 µM, first compound 0.03 µM) was 18.8% and the viability, T/C (second compound 10 µM, first compound 0.0949 µM) was 3.67%. For the same compound, the viability, T/C (second compound 10 µM, first compound 0.3 µM) was 1.02%, the viability, T/C (second compound 10 µM, first compound 0.949 µM) was 3.87% and the viability, T/C (second compound 10 µM, first compound 3 µM) was 4.53%.
